The results in this text go back to a melting point compilation (Tetko et al.; mined from patent text by program, amines drawn as free bases though some values may be those of a salt).

What is called melting point is the temperature of the solid-liquid transition.

`CNC(=O)Oc1c(OC)cc(OC)c2ccccc12` displayed a melting point of 131 to 133 °C.

In turn, `COC(=O)CC[C@@H](NC(=O)[C@H](COCc1ccccc1)NC(=O)OC(C)(C)C)C(N)=O` returned a melting point of 103 to 104 °C.

As to `Cc1c(N2CCN(C=O)C(C)C2)c(F)cc2c(=O)c(C(=O)O)cn(C3CC3)c12` (stereo unspecified), the melting point fell in the range of 236 to 239 °C.

In the case of `O=C1C(Cc2ccccc2)NC(=S)N1c1nc2ccc(F)cc2s1` (stereo unspecified), the melting point was in the range of 223 to 224 °C.

As to `CCOC(=O)c1c(Cn2cncn2)nc2sc3ncccc3c2c1-c1ccc(OC)c(OC)c1`, the melting point fell in the range of 180 to 182 °C.

For `COc1cc(CCN2CCC(NC(=O)c3ccccc3)CC2)cc(OC)c1OC`, the melting point lay in the range of 193 to 194 °C.

For the compound `Cc1ccc(Cl)c(OCC(O)CNCCNC(=O)NCCCO[N+](=O)[O-])c1` (stereo unspecified), the melting point fell in the range of 109 to 111 °C.

The compound `Cn1cncc1C(O)(c1ccc(CO)cc1)c1ccc2c(c1)c(-c1cccc(Cl)c1)cc(=O)n2C` (stereo unspecified) returned a melting point of 273 °C.

Consider `CS(=O)(=O)OCCCCC1C(=O)Nc2ccccc21` (stereo unspecified), for which the melting point fell in the range of 84 to 85 °C.

In turn, `CC1(C)CCC(C)(C)c2cc(C(N)C(=O)NCS(=O)(=O)c3ccccc3)ccc21` (stereo unspecified) yielded a melting point of 175 to 176 °C.

For the compound `NNC(=O)c1ccc2[nH]nnc2c1`, the melting point lay within 295 to 296 °C.

With `CC(C)(Sc1cc(C(C)(C)C)c(O)c(C(C)(C)C)c1)Sc1cc(C(C)(C)C)c(OCC[C@H](O)CO)c(C(C)(C)C)c1`, the melting point was in the range of 110 to 112 °C.

As to `CC1(C)CC(SCc2c(C(F)(F)F)nn(C(C)(C)C)c2Cl)=NO1`, the melting point fell in the range of 79 to 81 °C.

In turn, `Cc1ccccc1Sc1c(O)cc(-c2ccccc2)oc1=O` came in with a melting point of 210 to 211 °C.

Compound `NCc1ccccc1CC(=O)O` displayed a melting point of 151 to 155 °C.

On to `CCCCCCCCCCCCCCOc1ccc(C(=O)Oc2ccc(-c3ncc(C(=O)O[C@@H](C)CCCCCC)cn3)cc2)cc1`, for which the melting point came to 85.4 °C.

In turn, `CC(C)Nc1nc2ccccn2c(=O)c1-c1ccc(NC2CCN(C(=O)OC(C)(C)C)C2)cc1` (stereo unspecified) showed a melting point of 210 to 212 °C.

Take `CC(=O)Nc1ccc(N2CCC(O)CC2)cc1`: the melting point amounted to 191 °C.

Regarding `COc1cc(CC2SC(N3CCCC3)=NC2=O)cc(-c2ccc(O)c(C3(C)CCCCC3)c2)c1` (stereo unspecified), the melting point lay within 88 to 91 °C.

The compound `Cc1c(SCCSCCn2c([N+](=O)[O-])cnc2C)ccnc1CNc1cnc2ccccc2c1` registered a melting point of 152 to 154 °C.

The compound `CCOc1cc(N)ccc1C(O)c1cc(C)ccn1` (stereo unspecified) registered a melting point of 102 to 105 °C.

Turning to `CC(=CCO)COc1ccc([N+](=O)[O-])cc1`, the melting point was 41 to 43 °C.

The compound `COc1cc2cc(C(=O)N3CC(COS(C)(=O)=O)c4c3cc(N)c3ccccc43)[nH]c2c(OC)c1OC` (stereo unspecified) gave a melting point of more than 260 °C.

In turn, `O=[N+]([O-])c1cccnc1Nc1ccc(O)cc1` came in with a melting point of 143 to 144 °C.

Compound `COC(=O)Nc1ccc(OCc2nc3ccccc3s2)cc1` yielded a melting point of 142 to 144 °C.

For `Cc1cc(-c2nc3c(C)cc(Cl)nn3c2-c2ccnc(N)c2)ccc1F`, the melting point lay in the range of 218 to 219 °C.

Consider `COc1ccccc1-c1cccc(-n2cnc3cc(C(O)C#N)ccc32)c1` (stereo unspecified), for which the melting point is 116 to 124 °C.

In turn, `COC(=O)c1nc(N)ccc1Oc1nc(OC)cc(OC)n1` showed a melting point of 67 to 69 °C.

As to `COc1cc2c(cc1OC)N(C(=O)OCc1ccccc1)C(C)C(=CN)C2=O` (stereo unspecified), the melting point is 143 to 150 °C.

`Nc1nc(C2CCN(C(=O)Nc3ccccc3)CC2)c2ccccc2n1` had a melting point of 178 to 180 °C.

Compound `COc1cc(OCCCN2CCOCC2)c(C=CC(=O)c2ccc(S(N)(=O)=O)cc2)cc1-c1cccs1` yielded a melting point of 193 to 196 °C.

`S=c1cc(N2CCCC2)ss1`: the melting point was found to be 230 °C.

In turn, `O=C1C2=C(SCCO2)C(=O)N1c1ccc(Cl)cn1` had a melting point of 152 °C.

For `CC(=O)c1ccc(C(C)Oc2cccc(C(=O)Nc3ccc(C#N)cc3)c2)cc1` (stereo unspecified), the melting point fell in the range of 79 to 81 °C.

`COc1cccc2c1C(=O)c1c(OC)cc(-c3nnn[nH]3)cc1C2=O`: the melting point lay in the range of 262 to 264 °C.

With `CON(C)C(=O)COc1nnc(-c2ccc3c(c2)CCO3)o1`, the melting point fell in the range of 139 to 140 °C.

Take `CC1(N)CCN(c2ncc3ncnc(Nc4ccc(F)c(Cl)c4)c3n2)CC1`: the melting point lay within 188 to 190 °C.

`COC(=O)c1cccc(Cn2ccc(OCc3ccc(F)cc3F)c(Br)c2=O)c1`: the melting point fell in the range of 115 to 117 °C.

Turning to `Cc1cccc(Cl)c1N1CCCN(C(C)C)C1=S`, the melting point fell in the range of 135 to 136 °C.

`CCOC(=O)c1sc2ccc(O)c(C=O)c2c1Cl` showed a melting point of 128 to 130 °C.

Compound `O=C(O)c1ccc(Cl)cc1Nc1cccc(Br)c1` came in with a melting point of 205 to 207 °C.

For `COCc1cccc(COC)c1SSc1c(COC)cccc1COC`, the melting point is 89 to 90 °C.

The compound `CCCCOCCc1ccc(C2=CCC(c3ccc(Br)cc3)CC2)cc1` (stereo unspecified) displayed a melting point of 86.5 to 89.5 °C.

`O=C1CCC(N2Cc3c(OCc4ccc(CN5CCN(C(=O)C6CCCCC6)CC5)cc4)cccc3C2=O)C(=O)N1` (stereo unspecified): the melting point was in the range of 215 to 217 °C.

In turn, `CC(=O)Nc1ccc(S(=O)(=O)Nc2cccnc2Nc2ccccc2)cc1` had a melting point of 234 to 236 °C.

Take `Cc1cc(N(C)c2ccn(-c3ccccc3)n2)cc(C)c1O`: the melting point is 139 to 140 °C.

`O=C(Nc1ccc(N2CCCC2)nc1)c1cc2cc(C(F)(F)F)cnc2n1Cc1cccc(F)c1` showed a melting point of 234 to 236 °C.

For `CC(C)C(=O)O[C@H]1[C@H](C)OC(=O)[C@@H](NC(=O)OC(C)(C)C)COC(=O)[C@@H]1Cc1ccccc1`, the melting point is 143 to 145 °C.

Regarding `Cc1cccc2c1CCn1ncnc1C2=C1CCN(C)CC1`, the melting point came to 150 °C.

In turn, `CCOC(=O)C1=C(N)NC(c2ccccc2)=CC1c1ccccc1` (stereo unspecified) registered a melting point of 159 °C.

In the case of `O=C(O)CCCC(=O)Oc1cccc(-c2cn3c(n2)sc2ccccc23)c1`, the melting point lay in the range of 168 to 171 °C.

In turn, `CC(C)N(CCC1(c2ccccc2)C(=O)NC(C)N2CCCCC21)C(C)C` (stereo unspecified) displayed a melting point of 142 to 145 °C.

Consider `CCCCCCCCCCCCCCOc1ccccc1NC(=O)c1cc(Sc2nnnn2-c2cccc(C(=O)O)c2)c2ccccc2c1O`, for which the melting point was 136 to 138 °C.

Consider `O=C(Nc1ccc2[nH]c(=O)oc2c1)C(=O)N1CCC(Cc2ccc(F)cc2)CC1`, for which the melting point lay within 224 to 227 °C.

In turn, `CCOCCCOc1ccc(-c2ccc3c(c2)C=C(C(=O)OC)CCN3S(C)(=O)=O)cc1` came in with a melting point of 127 to 129 °C.

In turn, `COCC[C@H]1CN(C2=Nc3ccccc3Nc3ccc(C(F)(F)F)cc32)CCN1C` yielded a melting point of 48 to 56 °C.

Compound `O=C(CCCCOc1ccccc1O)C(F)(F)F` came in with a melting point of 51 to 52 °C.

As for `O=C(O)C1CN(C(=O)N(c2ccccc2)c2ccccc2)CCN1C(=O)N(c1ccccc1)c1ccccc1` (stereo unspecified), the melting point is 244 to 246 °C.

In the case of `O=C1OC(CN2CCC(O)(c3ccc(F)cc3)CC2)CN1c1ccccc1` (stereo unspecified), the melting point was in the range of 128 to 129 °C.

Turning to `CON=Cc1cc(-n2c(=O)cc(C(F)(F)F)[nH]c2=O)c(F)cc1Cl`, the melting point is 176 to 177 °C.

Turning to `COc1ccc(N2CCN(C[C@H]3COc4ccc5nc(C)ccc5c4O3)CC2)cc1`, the melting point was 164 to 165 °C.

With `Cc1[nH]c([N+](=O)[O-])c(C)c1-c1ccnc(Nc2ccc(F)cc2)n1`, the melting point is 166 to 170 °C.

Compound `Clc1ccc(-c2nn(-c3ccc(Br)cc3)cc2CCc2nnn[nH]2)cc1` displayed a melting point of 164 to 166 °C.

`COC1OC(CO)C(OCc2ccccc2)C(O)C1OCc1ccccc1` (stereo unspecified) displayed a melting point of 104 to 105 °C.

Take `COC(=S)c1cc(N)cc(N)c1C`: the melting point lay within 102 to 104 °C.

The compound `N#Cc1cc(Cl)c(NC(=O)C(F)(F)F)c(Cl)c1` displayed a melting point of 134 to 136 °C.

For the compound `c1ccc2c(c1)CNc1ccccc1O2`, the melting point lay in the range of 74 to 76 °C.

In turn, `CC(C)CC(NC(=O)c1ccc(F)cc1SSc1cc(F)ccc1C(=O)NC(CC(C)C)C(=O)O)C(=O)O` (stereo unspecified) registered a melting point of 261 to 262 °C.

As for `COc1ccc2ncc([N+](=O)[O-])c(Cl)c2c1`, the melting point was 281 to 283 °C.

`COc1ccc2c(c1)c(CC(=O)OCC(=O)O)c(C)n2C(=O)c1ccc(C(F)(F)F)cc1`: the melting point fell in the range of 166 to 167 °C.

For the compound `CCOC(=O)C(O)(Cc1ccc2ccccc2n1)C(=O)OCC`, the melting point was 71 to 72 °C.

Take `O=C(NCCCC(=O)N1CCCC1)c1cc(Br)no1`: the melting point fell in the range of 120 to 121 °C.

`COc1ccccc1N1CCN(C(=O)[C@@H](Cc2ccncc2)NC(=O)OC(C)(C)C)CC1` registered a melting point of 105 °C.

The compound `O[C@H]1CC[C@H](Oc2cccc3onc(OCC4CCN(CC5(O)CCOCC5)CC4)c23)C1` (relative stereo) displayed a melting point of 147 °C.

`CCOC(=O)c1cc2cccc(OC)c2[nH]1` gave a melting point of 69 to 72 °C.

`NC(=O)NCCCC(NC(=O)OCc1ccccc1)C(=O)OCc1ccc([N+](=O)[O-])cc1` (stereo unspecified) yielded a melting point of 144 to 146 °C.

For the compound `Cc1ccc(-n2c(-c3sc(Nc4ccc(Cl)cc4)nc3-c3ccccc3)nc3ccccc3c2=O)cc1`, the melting point was more than 275 °C.

Consider `COc1cc(F)ccc1-c1ccnc(NC(=O)[C@H]2CC[C@@H](NC(C)=O)C2)c1`, for which the melting point was 125 to 129 °C.

The compound `COc1ccccc1NC(=O)Nc1nc(Nc2ccccc2C(=O)O)nc(Nc2ccccc2-c2ccccc2)n1` came in with a melting point of 228 °C.

As to `Cc1ccc(-c2ncc(N(CCCCOCC(=O)O)C(C)C)nc2-c2ccc(C)cc2)cc1`, the melting point lay within 155 to 156 °C.

For the compound `C=C(C)C(=O)OCCNc1nc(Cl)nc(Cl)n1`, the melting point was 138 to 140 °C.

Turning to `COc1cc(CCCC2OC(=O)NC2=O)ccc1OCc1coc(/C=C/c2ccccc2)n1` (stereo unspecified), the melting point was in the range of 178 to 179 °C.

The compound `OC1(NC2=NCCS2)C(=Cc2ccccc2)CSCC1=Cc1ccccc1` (stereo unspecified) gave a melting point of 171 to 172 °C.

`Cn1c(=O)cc(CCO)c2ccccc21`: the melting point lay in the range of 149 to 150 °C.

Take `O=C(C=Cc1ccc(O)cc1)c1c(O)cccc1O`: the melting point was 190 to 192 °C.

In the case of `Cc1c2c(c(C(=O)c3ccc(C(C)C)cc3)c(C)c1NC(=O)CC(C)(C)C)OC(C)(C)C2`, the melting point is 194 to 195 °C.
